Assay results: patent publication US20060217340A1, “Methods and products for treating hypertension by modulation of TRPC3 channel activity” (University of Vermont and State Agricultural College, priority 2005, published 2006)
“Also recorded” adds a separate entry of the source.

How the values were obtained:
cerebral artery SMCs = assay: Membrane potential recordings in pressurized cerebral arteries; format: cell-based, rat; settings: for resting membrane potential (Vm): before UTP; for pressure-induced depolarization of arterial SMCs: intravascular pressure increased from 20 to 80 mm Hg
From the text: (§1) Oligodeoxynucleotide Sequences and Reverse Permeabilization. TRPC6 sense and antisense oligodeoxynucleotides (ODN's) were designed as previously described (Welsh et al 2002 Circ Res 90, 248-250) and were as follows: sense, 5′-[…]-3′ (SEQ ID: 3) and 5′-GCACACGCAGCCTCTTCAC-3′ (SEQ ID: 4) antisense, 5′-[…]-3′ (SEQ ID: 5) and 5′-[…]-3′ (SEQ ID: 6). TRPC3 sense and antisense ODN's were designed based on the rat TRPC3 gene (Ohki et al 2000 J Biol Chem 275: 39055-39060) and are as follows: sense, 5′-[…]-3′ (SEQ ID: 7) and 5′-[…]-3′ (SEQ ID: 8); anti-sense, 5′-[…]-3′ (SEQ ID: 9) and 5′-[…]-3′ (SEQ ID: 10). The last five bases on the 5′ and 3′ end were phosphorothioated in order to limit ODN degradation. For some experiments fluoroscein-isothiocyanate was conjugated to the 5′ end to allow for histological assessment of cellular uptake of the ODNs. All ODNs were synthesized and HPLC purified commercially by Qiagen (Alameda, Calif., USA). Sense and antisense ODN's (2 μM) were introduced into the arterial SMs using a reversible permeabilization procedure (Lesh et al 1995 Circ Res 77,220-230)). The arterial segments were then organ cultured for 3 days in D-MEM/F-12 culture media with L-glutamine (2 mM), penicillin (50 units/ml) and streptomycin (50 μg/ml) prior to use.
(§2) Diameter and membrane potential recordings. Endothelial cell denuded artery segments were mounted on glass pipettes in an arteriograph chamber (Living Systems, Burlington, Vt., USA), pressurized to 20 mmHg (with no flow), and superfused with warm (37° C.), gassed (95% 02/5% CO2) physiological saline solution (PSS) containing (in mM): 119 NaCl, 4.7 KCl, 24 NaHCO3, 0.2 KH2PO4, […], 1.2 MgSO4, 1.6 CaCl2, and 10.6 glucose, pH 7.4. In experiments using Ca^2+-free PSS, CaCl2 was omitted and 3 mM EGTA and 30 μM diltiazem added. In experiments with diacylglycerol induction, 300 μM of the diacylglycerol analogue OAG (1-oleyol-2-acetyl-sn-glycerol) was added. The endothelium was removed as previously described (Sun et al 1993 Endothelium 1, 115-122). To verify endothelial cell removal the arteries were pressurized to 60 mmHg and allowed to develop myogenic tone prior to exposing the vessels to 1 μM UTP. Absence of a dilation or biphasic constrictor response to 1 μM UTP indicated successful endothelial cell removal (Marelli 2001 Am J Physiol Heart Cir Physiol 281, H1759-H1766; Miyagi et al 1996 Br J Pharmacol 118, 847-856). Arterial diameter or membrane potential (Vm) of sense and anti-sense treated arteries was measured in the absence (control) or presence of UTP (concentration range: 0.1 to 10 μM). Membrane potential was measured by inserting a sharp glass electrode (≈100 MΩ resistance) containing 0.5M KCl into the vessel wall. The criteria for successful vascular smooth muscle cell impalement were: (1) a sharp negative Vm deflection on entry; (2) a stable potential for at least 1 minute after entry; and (3) a sharp positive Vm deflection upon removal. Measurements were made using an electrometer (World Precision Instruments) and the data were recorded via computer using Axotape and Dataq software. Arterial diameter was measured using a video dimension analyzer (IonOptix Corporation; Milton, Mass.).

[1] = tested on: pressurized rat cerebral arteries; assay: Arterial diameter recordings (constriction) in pressurized cerebral arteries; format: cell-based; settings: for change in lumen diameter: Ca2+ returned to superfusate in the presence of UTP and nimodipine; for decrease of resting diameter: extracellular KCl raised from 5 mM to 60 mM; for myogenic tone: intravascular pressure increased from 20 to 80 mm Hg
From the text: as §1
as §2, with “Arterial diameter or membrane potential (Vm) of sense and anti-sense treated arteries was measured in the absence (control) or presence of UTP (concentration range: 0.1 to 10 μM).” left out
Statistical analysis. Data are expressed as means±SEM, and n indicates the number of animals. Changes in arterial diameter were measured as a percent constriction calculated as follows: [formula]

[2] = 1 μM UTP, paired arteries, original recordings (FIG. 7A)

Substance | resting membrane potential (Vm) (cerebral artery SMCs) | pressure-induced depolarization of arterial SMCs (cerebral artery SMCs) | constriction [1, 2] | constriction ([1]; 300 μM OAG) | change in lumen diameter [1] | decrease of resting diameter [1] | myogenic tone [1] | UTP-induced depolarization of SMCs versus sense-treated arteries (cerebral artery SMCs; all UTP concentrations tested) | generalized inhibitory effect on arterial contractility [1] | reduction of UTP-induced constriction compared with sense-treated arteries ([1]; 10^−5 M UTP) | reduction of UTP-induced constriction compared with sense-treated arteries ([1]; 10^−6 M UTP) | constrictions versus sense treated arteries ([1]; low concentration of UTP (0.1 to 1.0 μM))
5′-TATTCCAGTTCATGGTTCTC-3′ (SEQ ID: 7) and 5′-TGTCTGGTCGTGTTGGTCGT-3′ (SEQ ID: 8) (phosphorothioate ends, further chemistry not given here) [TRPC3 sense, sense control ODNs based on the rat TRPC3 gene; end bases phosphorothioated] | −50±1 mV | 14±1 mV | 38% | 17±3% | −128±8 μm | 58±12% | 26±4% | – | – | – | – | –
5′-GAGAACCATGAACTGGAATA-3′ (SEQ ID: 9) and 5′-ACGACCAACACGACCAGACA-3′ (SEQ ID: 10) (phosphorothioate ends, further chemistry not given here) [TRPC3 antisense, antisense ODNs based on the rat TRPC3 gene; last five bases on the 5′ and 3′ end phosphorothioated] | −49±2 mV | 14±1 mV | 30% | 1±1% | −85±17 μm | 57±9% | 27±5% | significantly less; also recorded: significantly reduced | no generalized inhibitory effect | 37% | approximately 61% | significantly less
